{
  "source": "patent US10000469B2",
  "about": "“Heat shock protein 70 (hsp-70) receptor ligands” (Duke University, priority 2014, dated 2018)",
  "key": {"Hsc70": {"molecular_target": "T1, Hsc70 (Homo sapiens, UniProt P11142)", "T1 construct": "His tag (cleaved yes); made in house", "experiment": "Thermofluor assay, purified Hsc70", "type": "binding", "conditions": "±ATP", "protocol": "Protein Purification: Plasmids were provided for human HSPA1A, HSPA8, and HSPA1A C306D. Plasmids were transformed in Rosetta competent cells and single colonies were picked from streaked LB/ampicillin/chloramphenicol plates. Cultures were grown at 37° C. for 4-6 hours, were cooled to 15° C. and expression was induced overnight with 200 uM isopropyl 1-thio-β-D-galactopyranoside. Cells were pelleted and resuspended in Ni-lysis buffer (50 mM Na2HPO4, 300 mM NaCl, 10 mM Imidazole, 0.05% Tween-20) supplemented with Complete Mini protease inhibitor tablets (Roche, Mannheim, Germany) and […], and then sonicated. The cells were again pelleted and the supernatant was incubated with complete His-Tag purification resin (Roche, Mannheim, Germany) for 5 hours at 4° C. The resin was washed with Ni-wash buffer (50 mM Na2HPO4, 300 mM NaCl, 20 mM Imidazole, 0.05% Tween-20) and eluted with Ni-elution buffer (50 mM Na2HPO4, 300 mM NaCl, 250 mM Imidazole, 0.05% Tween-20). […]\nThermofluor Assay: SYPRO orange (Molecular Probes, Eugene, Oreg.) was diluted 1:1000 in 25 mM HEPES, 5 mM MgCl2, 10 mM KCl (pH 7.5) and purified Hsp70i, Hsc70, Hsp70i C306, or Hsp90, was then added to a final dilution of 0.04 mg/ml. […] A melt curve protocol (25° C. to 90° C., increasing 0.5° C. and a plate reading every 30 seconds) was run on a CFX384 Touch™ Real-Time PCR Detection System (BioRad). […]"}, "Hsp70": {"molecular_target": "T2, Hsp70 (Sus scrofa, UniProt P34930)", "T2 construct": "from tissue; host or cells: pig bladder", "T2 sequence (P34930 whole entry)": "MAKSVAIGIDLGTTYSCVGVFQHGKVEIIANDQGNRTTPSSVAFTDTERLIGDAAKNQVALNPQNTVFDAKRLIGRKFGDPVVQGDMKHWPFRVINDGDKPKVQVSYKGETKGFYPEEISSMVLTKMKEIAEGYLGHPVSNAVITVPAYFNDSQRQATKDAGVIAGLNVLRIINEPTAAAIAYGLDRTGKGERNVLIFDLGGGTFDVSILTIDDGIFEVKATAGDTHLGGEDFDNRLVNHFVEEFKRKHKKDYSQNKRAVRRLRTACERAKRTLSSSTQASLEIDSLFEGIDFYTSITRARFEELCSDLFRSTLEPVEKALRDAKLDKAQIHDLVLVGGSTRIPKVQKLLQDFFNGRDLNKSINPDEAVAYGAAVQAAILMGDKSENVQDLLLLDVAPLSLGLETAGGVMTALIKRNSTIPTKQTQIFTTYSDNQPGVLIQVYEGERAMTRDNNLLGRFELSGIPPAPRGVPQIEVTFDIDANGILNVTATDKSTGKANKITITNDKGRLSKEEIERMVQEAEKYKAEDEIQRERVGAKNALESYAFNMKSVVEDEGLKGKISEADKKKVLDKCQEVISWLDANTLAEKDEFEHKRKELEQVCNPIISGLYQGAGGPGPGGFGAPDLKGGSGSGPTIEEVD", "experiment": "Endogenous Hsp70 elution from ATP resin, pig bladder lysate", "type": "binding", "conditions": "few non-specific eluted proteins", "protocol": "Endogenous Hsp70 elution: Pig bladder tissue was used for eluting endogenous Hsp70 from the γ-phosphate ATP sepharose resin. Tissue was homogenized in liquid nitrogen and stored at −80° C. until further use. Tissue mass was measured (g) and then 2.5× volume (mL) of tissue lysis buffer (50 mM HEPES, 60 mM MgCl2, 60 mM KCl, 1 mM DTT) was added and homogenized on a laboratory blender. A total of 25 grams of homogenized tissue was typically used for each experiment. Subsequent to lysis, the tissue was centrifuged at 35,000 RPM in a Beckman Type 45 Ti rotor (Brea, Calif.) for 45 minutes at 4° C., and then filtered over silica wool. The filtered supernatant was then added to the γ-phosphate ATP sepharose resin and washed as previously described in the FLECS screen. Compounds were used to elute Hsp70 and the elutions were then separated by SDS-PAGE and analyzed by Western blot or the gels were visualized by silver stain."}, "[1]": {"test_system": "PC12 cell line expressing httQ74-GFP", "experiment": "Aggregation assay, cell culture model of Huntington's disease", "type": "cell-based, rat", "conditions": "compared to untreated controls", "protocol": "Aggregation Assay: The PC12 rat neuronal cell line, which expresses Huntingtin exon 1 containing 74 glutamine repeats is fused to GFP and under the control of a doxycycline promoter was used [Wyttenbach et al. (2001). Polyglutamine expansions cause decreased CRE-mediated transcription and early gene expression changes prior to cell death in an inducible cell model of Huntington's disease. Human molecular genetics 10, 1829-1845]. Cells were treated with HS-72 for 18 hours prior to a doxycycline addition for 48 hours. The soluble and pellet fraction were then separated by centrifugation at 14,000 rpm for 15 minutes and both fractions were assayed for httQ-GFP by solubilizing with SDS followed by western blotting with antibodies against GFP."}, "BT474": {"test_system": "BT474", "experiment": "Cell proliferation, BT474", "type": "cell-based", "protocol": "(§1) Cell Proliferation: Cell proliferation was determined using a Hoechst stain (Sigma, St. Louis, Mo.) to quantify DNA. 5,000 cells of the designated cell line were plated in 96 well plates and treated the next day, designated as time point 0, with the indicated concentration of the specified compound maintained for the duration of the assay. At the indicated time points the media was removed and plated frozen at −80° C. Double distilled H2O was then added and the plates were incubated at 37° C. for 1 hour. After 1 hour the plates were frozen at −80° C. After freezing the plates were thawed and Hoechst stain was diluted 1:1000 in THE buffer (10 mM Tris, 2M NaCl, 1 mM Na2EDTA). The final fluorescence was measured on the Victor X2 plate reader at 355/460 nm, and cell proliferation was determined with the formula: % Cell Proliferation=100×(Sample fluorescence−background fluorescence)/(Control fluorescence−background fluorescence)."}, "[2]": {"test_system": "LnCaP prostate cancer cell lines", "experiment": "Cell proliferation, LNCaP", "type": "cell-based", "protocol": "as §1"}, "MCF10A": {"test_system": "MCF10A", "experiment": "Cell proliferation, MCF10A", "type": "cell-based", "conditions": "non tumorigenic MCF10A", "protocol": "as §1"}, "[3]": {"experiment": "Blood workup after HS-72 treatment", "type": "in vivo", "conditions": "wild-type mice, compared to control mice", "protocol": "HS-72 in vivo MTD and blood workup: The 5 cohorts consisted of 3 mice each given HS-72 BiW and administered IP in DMSO at 1, 5, 10, 20 and 30 mpk using female FVBs aged to 10 weeks. Body Mass was measured weekly and the mice were monitored for signs of toxicity as per MP1U standard protocol. For blood analysis, 4 mice were injected IP with HS-72 on day 1 and 4, with blood drawn on day 5. 4 mice receiving no treatment were used as controls."}},
  "note": "Entries after “also recorded” stand apart in the source; their conditions may differ.",
  "data": [
    {"smiles": "CCCn1c(NC(=O)[C@H]2CCCN(c3cnccn3)C2)nc2ccccc21", "note": "[HS-72, (S)—N-(1-propyl-1H-benzo[d]imidazol-2-yl)-1-(pyrazin-2-yl)piperidine-3-carboxamide]", "values": [
      {"measurement": "effect on Tm of Hsc70", "setting": "Hsc70", "result": "does not change"},
      {"measurement": "elution of Hsp70 from ATP resin", "setting": "Hsp70", "result": "elutes Hsp70"},
      {"measurement": "increase of HttQ-GFP in the insoluble associated pellet fraction", "setting": "[1]", "result": 50, "unit": "%"},
      {"measurement": "cell proliferation", "setting": "BT474", "result": "inhibits proliferation"},
      {"measurement": "cell proliferation", "setting": "[2]", "result": "inhibits proliferation"},
      {"measurement": "cell proliferation", "setting": "MCF10A", "result": "insensitive; also recorded: continue to grow at all concentrations"},
      {"measurement": "complete blood count", "setting": "[3]", "result": "no effect on complete blood count"},
      {"measurement": "kidney function", "setting": "[3]", "result": "no effect on kidney function"},
      {"measurement": "liver function", "setting": "[3]", "result": "no effect on liver function"}
    ]}
  ]
}
